Reference: the OligoGym collection
“And” between values parts separate entries of the source, which are not always exact repeats. Equal entries are not always repeated. After the bases stand the sugars from the 5' end (letter, count) and the backbone: PS all phosphorothioate, else s phosphorothioate and o phosphodiester by linkage. Methylation of C is not given here. e = 2'-O-(2-methoxyethyl) (MOE); k = constrained ethyl (cEt); d = 2'-deoxy (DNA)

Biological target: IRF4
Details: ASO

Question: With CCTATCACTGCCAAGT (sugars k3 d10 k3, PS) as the sequence, how does the target mRNA inhibition (MM.1R, 1 µM) read?
Answer: -3%

Question: With CCTATGCTGAACCCCA (sugars k3 d10 k3, PS) as the sequence, how does the target mRNA inhibition (MM.1R, 1 µM) read?
Answer: -12%

Question: CCTCAAAGTCATTGCT (sugars k3 d10 k3, PS) was tested. Which target mRNA inhibition (SK-MEL-28, 4 µM) did it give?
Answer: 21%

Question: How did the target mRNA inhibition (SK-MEL-28, 4 µM) turn out when CCTCACTACAGAGCCC (sugars k3 d10 k3, PS) was run?
Answer: 24%

Question: For “CCTCAGTTTGTGAAGC (sugars e1 k2 d9 k2 e2, PS)”, which target mRNA inhibition (MM.1R, 1 µM) is on record?
Answer: 11%

Question: With “CCTCAGTTTGTGAAGC (sugars k3 d9 k3 e1, PS)” as the sequence, how does the target mRNA inhibition (MM.1R, 1 µM) read?
Answer: 2%

Question: How did the target mRNA inhibition (SK-MEL-28, 4 µM) turn out when CCTCAGTTTGTGAAGC (sugars k3 d10 k3, PS) was run?
Answer: 69%

Question: Which target mRNA inhibition (MM.1R, 1 µM) does the source give for CCTCATTCACAACTAG (sugars k3 d10 k3, PS) here?
Answer: 5%

Question: For CCTCCATTCTAACAGA (sugars k3 d10 k3, PS), which target mRNA inhibition (SK-MEL-28, 4 µM) is on record?
Answer: -18%

Question: CCTCTGAGCAGAACGA (sugars k3 d10 k3, PS) was tested. Which target mRNA inhibition (SK-MEL-28, 4 µM) did it give?
Answer: 76%

Question: How did the target mRNA inhibition (SK-MEL-28, 4 µM) turn out when CCTGAGACAGACTTCC (sugars k3 d10 k3, PS) was run?
Answer: 55%

Question: How did the target mRNA inhibition (MM.1R, 1 µM) turn out when CCTGATGCCTCCGCCG (sugars k3 d10 k3, PS) was run?
Answer: 6%

Question: CCTGTAGTATGAGAAA (sugars k3 d10 k3, PS) was tested. Which target mRNA inhibition (SK-MEL-28, 4 µM) did it give?
Answer: 57%

Question: Which target mRNA inhibition (SK-MEL-28, 4 µM) does the source give for CCTGTGGTGGAACTCT (sugars k3 d10 k3, PS) here?
Answer: 27%

Question: Which target mRNA inhibition (SK-MEL-28, 4 µM) does the source give for CCTTAACCAATCCCAA (sugars k3 d10 k3, PS) here?
Answer: 43%

Question: CCTTAAGCTATTTGGT (sugars k3 d10 k3, PS) was tested. Which target mRNA inhibition (MM.1R, 1 µM) did it give?
Answer: -786%

Question: Which target mRNA inhibition (MM.1R, 1 µM) does the source give for CCTTCAGATTTACACC (sugars k3 d10 k3, PS) here?
Answer: -9%

Question: CGAAAAGACTGGAGTG (sugars k3 d10 k3, PS) was tested. Which target mRNA inhibition (MM.1R, 1 µM) did it give?
Answer: 26%

Question: Which target mRNA inhibition (SK-MEL-28, 4 µM) does the source give for CGAAGAATTTTAGCAT (sugars k3 d10 k3, PS) here?
Answer: 58%

Question: Which target mRNA inhibition (SK-MEL-28, 4 µM) does the source give for CGAATAGGACCCCTAT (sugars k3 d10 k3, PS) here?
Answer: 9%

Question: CGACAACTTTCCTGAA (sugars k3 d10 k3, PS) was tested. Which target mRNA inhibition (SK-MEL-28, 4 µM) did it give?
Answer: 21%

Question: How did the target mRNA inhibition (SK-MEL-28, 4 µM) turn out when CGACAGTCCGGTTAGC (sugars k3 d10 k3, PS) was run?
Answer: 11%

Question: Which results are given for CGCAAGTCTACAGCCC (sugars k3 d10 k3, PS)?
Answer: target mRNA inhibition (MM.1R, 0.0625 µM): 0%; target mRNA inhibition (MM.1R, 0.074 µM): -7%; target mRNA inhibition (MM.1R, 0.222 µM): -9%; target mRNA inhibition (MM.1R, 0.25 µM): 1%; target mRNA inhibition (MM.1R, 0.666 µM): -9%; target mRNA inhibition (MM.1R, 1 µM): 6%; target mRNA inhibition (MM.1R, 2 µM): 8%; target mRNA inhibition (MM.1R, 4 µM): 12%; target mRNA inhibition (SK-MEL-28, 4 µM): 59%

Question: What does the source list for CGCATTGCTAGATTCT (sugars k3 d10 k3, PS)?
Answer: target mRNA inhibition (MM.1R, 0.0625 µM): -9%; target mRNA inhibition (MM.1R, 0.25 µM): 4%; target mRNA inhibition (MM.1R, 1 µM): 37% and 27%; target mRNA inhibition (MM.1R, 4 µM): 55%

Question: With CGCCACATCAGCAGAC (sugars k3 d10 k3, PS) as the sequence, how does the target mRNA inhibition (SK-MEL-28, 4 µM) read?
Answer: 12%

Question: For CGCCACCTGATGCCTC (sugars k3 d10 k3, PS), which target mRNA inhibition (SK-MEL-28, 4 µM) is on record?
Answer: 30%

Question: Which target mRNA inhibition (MM.1R, 1 µM) does the source give for CGCCAGCGGGTGAGCA (sugars k3 d10 k3, PS) here?
Answer: 19%

Question: How did the target mRNA inhibition (MM.1R, 1 µM) turn out when CGCCCAGGACCCGGCT (sugars k3 d10 k3, PS) was run?
Answer: -1%

Question: For CGCCCATGAGTTGAAA (sugars k3 d10 k3, PS), which target mRNA inhibition (MM.1R, 1 µM) is on record?
Answer: 13%

Question: With CGCCCTGGACTCGGAG (sugars k3 d10 k3, PS) as the sequence, how does the target mRNA inhibition (SK-MEL-28, 4 µM) read?
Answer: 36%

Question: For CGCGGTTGTAGTCCTG (sugars k3 d10 k3, PS), which target mRNA inhibition (SK-MEL-28, 4 µM) is on record?
Answer: 44%

Question: How did the target mRNA inhibition (SK-MEL-28, 4 µM) turn out when CGCTACAGCTTCTGCA (sugars k3 d10 k3, PS) was run?
Answer: 20%

Question: For CGCTCAAAGACCAGCT (sugars k3 d10 k3, PS), which target mRNA inhibition (SK-MEL-28, 4 µM) is on record?
Answer: 56%

Question: Which target mRNA inhibition (SK-MEL-28, 4 µM) does the source give for CGCTCAACCAGTTCCT (sugars k3 d10 k3, PS) here?
Answer: 28%

Question: With CGCTCAGGACTCAGGG (sugars k3 d10 k3, PS) as the sequence, how does the target mRNA inhibition (SK-MEL-28, 4 µM) read?
Answer: 55%

Question: How did the target mRNA inhibition (MM.1R, 1 µM) turn out when CGCTTGTGGATATACA (sugars k3 d10 k3, PS) was run?
Answer: 0%

Question: CGGAACTTTCCTTTAA (sugars k3 d10 k3, PS) was tested. Which target mRNA inhibition (SK-MEL-28, 4 µM) did it give?
Answer: 37%

Question: With CGGAAGAAGGCACCTT (sugars k3 d10 k3, PS) as the sequence, how does the target mRNA inhibition (SK-MEL-28, 4 µM) read?
Answer: -12%

Question: How did the target mRNA inhibition (SK-MEL-28, 4 µM) turn out when CGGACGCACGGAGAGG (sugars k3 d10 k3, PS) was run?
Answer: 28%

Question: CGGTTAGCTCATCCCG (sugars k3 d10 k3, PS) was tested. Which target mRNA inhibition (MM.1R, 1 µM) did it give?
Answer: 5%

Question: For CGTAGTCACGCAATGG (sugars k3 d10 k3, PS), which target mRNA inhibition (MM.1R, 1 µM) is on record?
Answer: 15%

Question: CGTGGAAACGAGAACG (sugars k3 d10 k3, PS) was tested. Which target mRNA inhibition (SK-MEL-28, 4 µM) did it give?
Answer: 29%

Question: “CGTGTGCTTGCCAAGC (sugars k2 d9 e3 k2, PS)” was tested. Which target mRNA inhibition (MM.1R, 1 µM) did it give?
Answer: 60% and 66%

Question: For “CGTGTGCTTGCCAAGC (sugars kddddddddddkekek, PS)”, which target mRNA inhibition (MM.1R, 1 µM) is on record?
Answer: 30% and 32%

Question: With “CGTGTGCTTGCCAAGC (sugars kkdddddddddekeke, PS)” as the sequence, how does the target mRNA inhibition (MM.1R, 1 µM) read?
Answer: 47% and 36%

Question: For CTAAAGTCCCATCGAA (sugars k3 d10 k3, PS), which target mRNA inhibition (MM.1R, 1 µM) is on record?
Answer: -2%

Question: With CTAAATTCTAGTTTGC (sugars k3 d10 k3, PS) as the sequence, how does the target mRNA inhibition (SK-MEL-28, 4 µM) read?
Answer: 21%

Question: CTAAGGAGACAGTAAC (sugars k3 d10 k3, PS) was tested. Which target mRNA inhibition (SK-MEL-28, 4 µM) did it give?
Answer: 29%

Question: For CTAATCCACAATCAGC (sugars k3 d10 k3, PS), which target mRNA inhibition (SK-MEL-28, 4 µM) is on record?
Answer: 45%

Question: Which target mRNA inhibition (SK-MEL-28, 4 µM) does the source give for CTAATCTACAACAAAT (sugars k3 d10 k3, PS) here?
Answer: 23%
